Laboratory results reported in patent publication US20240150293A1, “SPIROCYCLOHEXANE DERIVATIVES, PHARMACEUTICAL COMPOSITIONS CONTAINING THEM AND THEIR USES AS ANTI-APOPTOTIC INHIBITORS” (LES LABORATOIRES SERVIER, priority 2021, published 2024).
Where two headings read alike, the source gives them in different places.

How the values were obtained:
[1] = molecular target: Mcl-1 protein (UniProtKB Q07820) (Homo sapiens (Human), UniProt Q07820); experiment: Inhibition of Mcl-1 by the fluorescence polarisation assay (Example A, Method A); assay type: binding; details: fluorescence polarization assay
Sequence of Mcl-1 protein (Q07820 whole entry): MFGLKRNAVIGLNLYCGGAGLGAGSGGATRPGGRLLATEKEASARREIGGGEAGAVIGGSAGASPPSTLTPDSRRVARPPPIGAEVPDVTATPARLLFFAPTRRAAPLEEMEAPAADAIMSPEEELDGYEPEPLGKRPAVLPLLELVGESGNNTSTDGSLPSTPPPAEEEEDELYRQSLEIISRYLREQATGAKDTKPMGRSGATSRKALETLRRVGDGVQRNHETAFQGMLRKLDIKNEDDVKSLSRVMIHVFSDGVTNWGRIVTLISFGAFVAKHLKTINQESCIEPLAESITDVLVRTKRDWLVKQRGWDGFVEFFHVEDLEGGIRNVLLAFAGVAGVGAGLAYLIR
Method in brief: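 Protein (5 nM) and fluorescein-tagged peptide tracer (1 nM) incubated with 11-point compound series for 2 h at room temperature in HEPES/NaCl/Tween 20 buffer, pH 7.4, 5% DMSO. Displacement read as decrease in polarisation; IC50 fitted by 4-parameter logistic, converted to Ki (cKi or eKi).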

[2] = test system: H929 multiple myeloma tumor line; experiment: In vitro cytotoxicity, MTT assay (Example B, Method A); assay type: cell-based; details: H929 cells, 48 hours exposure, read-out: C50
Method: The cytotoxicity studies were carried out on the H929 multiple myeloma tumor line.
The cells are distributed onto microplates and exposed to the test compounds for 48 hours. The cell viability is then quantified by a colorimetric assay, the Microculture Tetrazolium Assay (Carmichael et al, Cancer Res. 1987, 47, 939-942).
The results are expressed in C50 which means concentration corresponding to […] of effect/inhibition.

Ki [1]	SMILES	IC50 ([2]; Homo sapiens, NCI-H929, 48 h)	IC50 [2]
323 nM	O=C(O)[C@]1(Nc2cccc(Cl)c2)CC[C@@]2(CC1)c1ccccc1C[C@H]2C[C@H](COc1ccncc1)c1ccccc1 [Example 554, (1r,2′R,4R)-4-(3-chloroanilino)-2′-{(2S)-2-phenyl-3-[(pyridin-4-yl)oxy]propyl}-2′,3′-dihydrospiro[cyclohexane-1,1′-indene]-4-carboxylic acid]	30000 nM	–
49.1 nM	O=C(O)[C@]1(Nc2cccc(Cl)c2)CC[C@@]2(CC1)c1ccccc1CC2CCCOc1ccncc1C1CC1 (stereo partly drawn) [Example 464, (1r,4r)-4-(3-chloroanilino)-2′-{3-[(3-cyclopropylpyridin-4-yl)oxy]propyl}-2′,3′-dihydrospiro[cyclohexane-1,1′-indene]-4-carboxylic acid]	14800 nM	–
106 nM	O=C(O)[C@]1(Nc2cccc(Cl)c2)CC[C@@]2(CC1)c1ccccc1C[C@H]2c1cccc(Oc2ccccc2)c1 [Example 323, (1r,2′S,4S)-4-(3-chloroanilino)-2′-(3-phenoxyphenyl)-2′,3′-dihydrospiro[cyclohexane-1,1′-indene]-4-carboxylic acid]	10500 nM	–
36 nM	CNc1cc(OC[C@H](C)C[C@H]2Cc3ccccc3[C@]23CC[C@@](Nc2cccc(Cl)c2)(C(=O)O)CC3)ccn1 [Example 585, (1r,2′S,4S)-4-(3-chloroanilino)-2′-[(2R)-2-methyl-3-{[2-(methylamino)pyridin-4-yl]oxy}propyl]-2′,3′-dihydrospiro[cyclohexane-1,1′-indene]-4-carboxylic acid]	2610 nM	–
317 nM	Cc1cc2c(OCCC[C@H]3Cc4ccccc4[C@]34CC[C@@](Nc3cccc(Cl)c3)(C(=O)O)CC4)cccc2[nH]1 [Example 482, (1r,2′S,4S)-4-(3-chloroanilino)-2′-{3-[(2-methyl-1H-indol-4-yl)oxy]propyl}-2′,3′-dihydrospiro[cyclohexane-1,1′-indene]-4-carboxylic acid]	12400 nM	–
5970 nM	CC(C)C(COc1ccccc1)CC1Cc2ccccc2[C@]12CC[C@@](Nc1cccc(Cl)c1)(C(=O)O)CC2 (single isomer, unassigned) [Example 531, (1r,4r)-4-(3-chloroanilino)-2′-[3-methyl-2-(phenoxymethyl)butyl]-2′,3′-dihydrospiro[cyclohexane-1,1′-indene]-4-carboxylic acid]	–	15900 nM
358 nM	COc1ccc2c(c1)[C@]1(CC2)CC[C@](Nc2cccc(Br)c2)(C(=O)O)CC1 [Example 61, (1r,4s)-4-(3-bromoanilino)-6′-methoxy-2′,3′-dihydrospiro[cyclohexane-1,1′-indene]-4-carboxylic acid]	30000 nM	–
4.26 nM	CC1CCc2nccc(OC[C@H](C)CC3Cc4ccccc4[C@]34CC[C@@](Nc3cccc(Cl)c3)(C(=O)O)CC4)c21 (single isomer, unassigned) [Example 600]	512 nM	–
72.1 nM	Cc1cc2c(OCCC[C@@H]3Cc4ccccc4[C@]34CC[C@@](Nc3cccc(Cl)c3)(C(=O)O)CC4)cccc2[nH]1 [Example 481, (1r,2′R,4R)-4-(3-chloroanilino)-2′-{3-[(2-methyl-1H-indol-4-yl)oxy]propyl}-2′,3′-dihydrospiro[cyclohexane-1,1′-indene]-4-carboxylic acid]	5080 nM	–
2050 nM	CC(C)C(COc1ccccc1)CC1Cc2ccccc2[C@]12CC[C@@](Nc1cccc(Cl)c1)(C(=O)O)CC2 (single isomer, unassigned) [Example 530, (1r,4r)-4-(3-chloroanilino)-2′-[3-methyl-2-(phenoxymethyl)butyl]-2′,3′-dihydrospiro[cyclohexane-1,1′-indene]-4-carboxylic acid]	15300 nM	–
29.9 nM	C[C@@H](COc1ncnc2c1C(C)(C)CC2)CC1Cc2ccccc2[C@]12CC[C@@](Nc1cccc(Cl)c1)(C(=O)O)CC2 (stereo partly drawn) [Example 595, (1r,4R)-4-(3-chloroanilino)-2′-{(2R)-3-[(5,5-dimethyl-6,7-dihydro-5H-cyclopenta[d]pyrimidin-4-yl)oxy]-2-methylpropyl}-2′,3′-dihydrospiro[cyclohexane-1,1′-indene]-4-carboxylic acid]	1510 nM	–
150 nM	O=C(O)[C@]1(Nc2cccc(Cl)c2)CC[C@]2(CC1)C(CCCCc1ccccc1)=Cc1ccccc12 [Example 393, (1r,4r)-4-(3-chloroanilino)-2′-(4-phenylbutyl)spiro[cyclohexane-1,1′-indene]-4-carboxylic acid]	12000 nM	–
809 nM	CC(C)C(COc1ccncc1)CC1Cc2ccccc2[C@]12CC[C@@](Nc1cccc(Cl)c1)(C(=O)O)CC2 (single isomer, unassigned) [Example 532, (1r,4r)-4-(3-chloroanilino)-2′-(3-methyl-2-{[(pyridin-4-yl)oxy]methyl}butyl)-2′,3′-dihydrospiro[cyclohexane-1,1′-indene]-4-carboxylic acid]	–	12600 nM
44.8 nM	C[C@@H](COc1ccnc2c1CCCO2)C[C@H]1Cc2ccccc2[C@]12CC[C@@](Nc1cccc(Cl)c1)(C(=O)O)CC2 [Example 635, (1r,2′S,4S)-4-(3-chloroanilino)-2′-{(2R)-3-[(3,4-dihydro-2H-pyrano[2,3-b]pyridin-5-yl)oxy]-2-methylpropyl}-2′,3′-dihydrospiro[cyclohexane-1,1′-indene]-4-carboxylic acid]	4590 nM	–
58.8 nM	COCCOc1ccc2c(c1)[C@]1(CC[C@@](Nc3cccc(Cl)c3)(C(=O)O)CC1)C(c1cccc(Oc3ccccc3)c1)C2 (single isomer, unassigned) [Example 384, (1r,4r)-4-(3-chloroanilino)-6′-(2-methoxyethoxy)-2′-(3-phenoxyphenyl)-2′,3′-dihydrospiro[cyclohexane-1,1′-indene]-4-carboxylic acid]	11400 nM	–
75.3 nM	O=C(O)[C@]1(Nc2cccc(Cl)c2)CC[C@@]2(CC1)c1ccccc1CC2CCCOc1ccnc2[nH]ccc12 (stereo partly drawn) [Example 445, (1r,4r)-4-(3-chloroanilino)-2′-{3-[(1H-pyrrolo[2,3-b]pyridin-4-yl)oxy]propyl}-2′,3′-dihydrospiro[cyclohexane-1,1′-indene]-4-carboxylic acid]	5350 nM	–
30 nM	O=C(O)[C@]1(Nc2cccc(Cl)c2)CC[C@@]2(CC1)c1ccccc1CC2CCCOc1ccnc2c1CCC2 (stereo partly drawn) [Example 452, (1r,4r)-4-(3-chloroanilino)-2′-{3-[(6,7-dihydro-5H-cyclopenta[b]pyridin-4-yl)oxy]propyl}-2′,3′-dihydrospiro[cyclohexane-1,1′-indene]-4-carboxylic acid]	2440 nM	–
159 nM	O=C(O)[C@]1(Nc2cccc(Cl)c2)CC[C@]2(CC1)C(c1ccc(Oc3ccccc3)cc1)=Cc1ccccc12 [Example 341, (1s,4s)-4-(3-chloroanilino)-2′-(4-phenoxyphenyl)spiro[cyclohexane-1,1′-indene]-4-carboxylic acid]	9260 nM	–
32.3 nM	C[C@@H](COc1ccnc2c1CCC[C@@H]2O)C[C@H]1Cc2ccccc2[C@]12CC[C@@](Nc1cccc(Cl)c1)(C(=O)O)CC2 [Example 669, (1r,2′S,4S)-4-(3-chloroanilino)-2′-[(2R)-3-{[(8S)-8-hydroxy-5,6,7,8-tetrahydroquinolin-4-yl]oxy}-2-methylpropyl]-2′,3′-dihydrospiro[cyclohexane-1,1′-indene]-4-carboxylic acid]	1520 nM	–
61.5 nM	O=C(O)[C@]1(Nc2cccc(Cl)c2)CC[C@]2(CC1)C(CCOc1cccc3[nH]ccc13)=Cc1ccccc12 [Example 192, (1r,4r)-4-(3-chloroanilino)-2′-{2-[(1H-indol-4-yl)oxy]ethyl}spiro[cyclohexane-1,1′-indene]-4-carboxylic acid]	4190 nM	–
3.37 nM	CC1CCc2nccc(OC[C@H](C)CC3Cc4ccccc4[C@]34CC[C@@](Nc3cccc(Cl)c3)(C(=O)O)CC4)c21 (mixture of isomers) [Example 602, (1r,4R)-4-(3-chloroanilino)-2′-{(2R)-2-methyl-3-[(5-methyl-6,7-dihydro-5H-cyclopenta[b]pyridin-4-yl)oxy]propyl}-2′,3′-dihydrospiro[cyclohexane-1,1′-indene]-4-carboxylic acid]	518 nM	–
332 nM	O=C(O)[C@]1(Nc2cccc(Cl)c2)CC[C@@]2(CC1)c1ccccc1CN2CCCOc1ccccc1 [Example 35, (1s,4s)-4-(3-chloroanilino)-2′-(3-phenoxypropyl)-2′,3′-dihydrospiro[cyclohexane-1,1′-isoindole]-4-carboxylic acid]	30000 nM	–
9480 nM	O=C(O)[C@]1(Nc2cccc(Cl)c2)CC[C@@]2(CC1)c1ccccc1C[C@H]2C[C@@H](COc1cccnc1)c1ccccc1 [Example 549, (1r,2′R,4R)-4-(3-chloroanilino)-2′-{(2R)-2-phenyl-3-[(pyridin-3-yl)oxy]propyl}-2′,3′-dihydrospiro[cyclohexane-1,1′-indene]-4-carboxylic acid]	17900 nM	–
4310 nM	CC(C)C(COc1ccccc1)CC1Cc2ccccc2[C@]12CC[C@@](Nc1cccc(Cl)c1)(C(=O)O)CC2 (single isomer, unassigned) [Example 529, (1r,4r)-4-(3-chloroanilino)-2′-[3-methyl-2-(phenoxymethyl)butyl]-2′,3′-dihydrospiro[cyclohexane-1,1′-indene]-4-carboxylic acid]	–	25300 nM
